Measurements from the supplement of paper PMC11061612.

Experiments:
Carboplatin = compound: C1CC(C1)(C(=O)[O-])C(=O)[O-].N.N.[Pt+2] [Carboplatin]; conditions: max 10 µM
Procedure, shortened: (§1)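 Following 24 hours at 37°C and 5% CO2, cancer cell lines in 1536-well plates with 7.5 μl DMEM/F12 or RPMI and 10% FBS were dosed for 72 hours, final DMSO typically being 0.2%. CellTiter-Glo 2.0 luminescence, scaled between blank-well and DMSO-well means, gave the viability readout. Dose responses were fitted to a two-parameter logistic curve with a non-linear mixed effects model, and the single-agent IC50 was derived from this fit.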

AZD5363 = compound: C1CN(CCC1(C(=O)N[C@@H](CCO)C2=CC=C(C=C2)Cl)N)C3=NC=NC4=C3C=CN4 [AZD5363]; conditions: max 10 µM
Procedure, shortened: as §1

AZD1775 = compound: C=CCn1c(=O)c2cnc(Nc3ccc(N4CCN(C)CC4)cc3)nc2n1-c1cccc(C(C)(C)O)n1 [AZD1775]
Procedure, shortened: as §1

Trametinib = compound: CC(=O)Nc1cccc(-n2c(=O)n(C3CC3)c(=O)c3c(Nc4ccc(I)cc4F)n(C)c(=O)c(C)c32)c1 [Trametinib]; conditions: max 1 µM
Procedure, shortened: as §1

Paclitaxel = compound: CC(=O)O[C@H]1C(=O)[C@@]2(C)[C@H]([C@H](OC(=O)c3ccccc3)[C@]3(O)C[C@H](OC(=O)[C@H](O)[C@@H](NC(=O)c4ccccc4)c4ccccc4)C(C)=C1C3(C)C)[C@]1(OC(C)=O)CO[C@@H]1C[C@@H]2O [Paclitaxel]; conditions: max 3 µM
Procedure, shortened: as §1

Palbociclib = compound: CC(=O)c1c(C)c2cnc(Nc3ccc(N4CCNCC4)cn3)nc2n(C2CCCC2)c1=O [Palbociclib]; conditions: max 10 µM
Procedure, shortened: as §1

AZD1390 = compound: CC(C)n1c(=O)n(C)c2cnc3cc(F)c(-c4ccc(OCCCN5CCCCC5)nc4)cc3c21 [AZD1390]; conditions: max 0.3 µM
Procedure, shortened: as §1

Venetoclax = compound: CC1(C)CCC(CN2CCN(c3ccc(C(=O)NS(=O)(=O)c4ccc(NCC5CCOCC5)c([N+](=O)[O-])c4)c(Oc4cnc5[nH]ccc5c4)c3)CC2)=C(c2ccc(Cl)cc2)C1 [Venetoclax]; conditions: max 1 µM
Procedure, shortened: as §1

Dasatinib = compound: CC1=C(C(=CC=C1)Cl)NC(=O)C2=CN=C(S2)NC3=CC(=NC(=N3)C)N4CCN(CC4)CCO [Dasatinib]; conditions: max 2 µM
Procedure, shortened: as §1

SG3199 = compound: CC1=CN2[C@@H](C1)C=NC3=CC(=C(C=C3C2=O)OC)OCCCCCOC4=C(C=C5C(=C4)N=C[C@@H]6CC(=CN6C5=O)C)OC [SG3199]; conditions: max 0.001 µM
Procedure, shortened: as §1

AZD2811 = compound: CCN(CCO)CCCOc1ccc2c(Nc3cc(CC(=O)Nc4cccc(F)c4)[nH]n3)ncnc2c1 [AZD2811]; conditions: max 1 µM
Procedure, shortened: as §1

SN-38 = compound: CCc1c2c(nc3ccc(O)cc13)-c1cc3c(c(=O)n1C2)COC(=O)[C@]3(O)CC [SN-38]; conditions: max 0.3 µM
Procedure, shortened: as §1

AZD0156 = compound: CN(C)CCCOc1ccc(-c2ccc3ncc4c(c3c2)n(C2CCOCC2)c(=O)n4C)cn1 [AZD0156]
Procedure, shortened: as §1

AZD4320 = compound: CN(CC[C@H](CSC1=CC=CC=C1)NC2=C(C=C(C=C2)S(=O)(=O)NC(=O)C3=CC=C(C=C3)N4CCC(CC4)[C@H](C5=CC=CC=C5C6=CC=C(C=C6)Cl)O)S(=O)(=O)C(F)(F)F)CCO [AZD4320]; conditions: max 1 µM
Procedure, shortened: as §1

Alisertib = compound: COc1cc(Nc2ncc3c(n2)-c2ccc(Cl)cc2C(c2c(F)cccc2OC)=NC3)ccc1C(=O)O [Alisertib]; conditions: max 10 µM
Procedure, shortened: as §1

Etoposide = compound: COc1cc([C@@H]2c3cc4c(cc3[C@@H](O[C@@H]3O[C@@H]5CO[C@@H](C)O[C@H]5[C@H](O)[C@H]3O)[C@H]3COC(=O)[C@H]23)OCO4)cc(OC)c1O [Etoposide]; conditions: max 10 µM
Procedure, shortened: as §1

Gefitinib = compound: COc1cc2ncnc(Nc3ccc(F)c(Cl)c3)c2cc1OCCCN1CCOCC1 [Gefitinib]; conditions: max 10 µM
Procedure, shortened: as §1

Prexasertib = compound: COc1cccc(OCCCN)c1-c1cc(Nc2cnc(C#N)cn2)n[nH]1 [Prexasertib]; conditions: max 1 µM
Procedure, shortened: as §1

Doxorubicin = compound: COc1cccc2c1C(=O)c1c(O)c3c(c(O)c1C2=O)C[C@@](O)(C(=O)CO)C[C@@H]3O[C@H]1C[C@H](N)[C@H](O)[C@H](C)O1 [Doxorubicin]; conditions: max 1 µM
Procedure, shortened: as §1

AZD5153 = compound: COc1nnc2ccc(N3CCC(c4ccc(OCCN5CCN(C)C(=O)[C@H]5C)cc4)CC3)nn12 [AZD5153]; conditions: max 1 µM
Procedure, shortened: as §1

Lapatinib = compound: CS(=O)(=O)CCNCc1ccc(-c2ccc3ncnc(Nc4ccc(OCc5cccc(F)c5)c(Cl)c4)c3c2)o1 [Lapatinib]; conditions: max 10 µM
Procedure, shortened: as §1

AZD8186 = compound: C[C@@H](Nc1cc(F)cc(F)c1)c1cc(C(=O)N(C)C)cc2c(=O)cc(N3CCOCC3)oc12 [AZD8186]; conditions: max 10 µM
Procedure, shortened: as §1

Crizotinib = compound: C[C@@H](Oc1cc(-c2cnn(C3CCNCC3)c2)cnc1N)c1c(Cl)ccc(F)c1Cl [Crizotinib]; conditions: max 10 µM
Procedure, shortened: as §1

Savolitinib = compound: C[C@@H](c1ccc2nccn2c1)n1nnc2ncc(-c3cnn(C)c3)nc21 [Savolitinib]; conditions: max 1 µM
Procedure, shortened: as §1

AZD6738 = compound: C[C@@H]1COCCN1C2=NC(=NC(=C2)C3(CC3)[S@](=N)(=O)C)C4=C5C=CNC5=NC=C4 [AZD6738]; conditions: max 10 µM
Procedure, shortened: as §1

AZD5991 = compound: Cc1c2c(nn1C)CSCc1cc(n(C)n1)CSc1cc(c3ccccc3c1)OCCCc1c(C(=O)O)n(C)c3c-2c(Cl)ccc13 [AZD5991]; conditions: max 1 µM
Procedure, shortened: as §1

AZD7648 = compound: Cc1cc2ncnn2cc1Nc1ncc2c(n1)n(C1CCOCC1)c(=O)n2C [AZD7648]; conditions: max 10 µM
Procedure, shortened: as §1

Taselisib = compound: Cc1nc(-c2cn3c(n2)-c2ccc(-c4cnn(C(C)(C)C(N)=O)c4)cc2OCC3)n(C(C)C)n1 [Taselisib]; conditions: max 10 µM
Procedure, shortened: as §1

Selumetinib = compound: Cn1cnc2c(F)c(Nc3ccc(Br)cc3Cl)c(C(=O)NOCCO)cc21 [Selumetinib]; conditions: max 10 µM
Procedure, shortened: as §1

SRA737 = compound: N#Cc1cnc(Nc2cc(NC[C@H]3CNCCO3)c(C(F)(F)F)cn2)cn1 [SRA737]; conditions: max 10 µM
Procedure, shortened: as §1

MK-2206 = compound: NC1(c2ccc(-c3nc4ccn5c(=O)[nH]nc5c4cc3-c3ccccc3)cc2)CCC1 [MK-2206]; conditions: max 10 µM
Procedure, shortened: as §1

Gemcitabine = compound: Nc1ccn([C@@H]2O[C@H](CO)[C@@H](O)C2(F)F)c(=O)n1 [Gemcitabine]; conditions: max 0.3 µM
Procedure, shortened: as §1

[1] = compound: O=C(Nc1ccc2[nH]nc(-c3ccncc3)c2c1)[C@@H]1CCN(CC(=O)N2CCN(c3ccc(-c4ncccn4)cc3)CC2)C1; conditions: max 5 µM
Procedure, shortened: as §1

Olaparib = compound: O=C(c1cc(Cc2n[nH]c(=O)c3ccccc23)ccc1F)N1CCN(C(=O)C2CC2)CC1 [Olaparib]; conditions: max 10 µM
Procedure, shortened: as §1

5-Fluorouracil = compound: O=c1[nH]cc(F)c(=O)[nH]1 [5-Fluorouracil]; conditions: max 20 µM
Procedure, shortened: as §1

Cell Line	IC50, cell viability 72 h (Carboplatin) [µM]	IC50, cell viability 72 h (AZD5363) [µM]	IC50, cell viability 72 h (AZD1775; max 3 µM) [nM]	IC50, cell viability 72 h (Trametinib) [nM]	IC50, cell viability 72 h (Paclitaxel) [nM]	IC50, cell viability 72 h (Palbociclib) [µM]	IC50, cell viability 72 h (AZD1390) [nM]	IC50, cell viability 72 h (Venetoclax) [nM]	IC50, cell viability 72 h (Dasatinib) [nM]	IC50, cell viability 72 h (SG3199) [nM]	IC50, cell viability 72 h (AZD2811) [nM]	IC50, cell viability 72 h (SN-38) [nM]	IC50, cell viability 72 h (AZD0156; max 3 µM) [nM]	IC50, cell viability 72 h (AZD4320) [nM]	IC50, cell viability 72 h (Alisertib) [µM]	IC50, cell viability 72 h (Etoposide) [µM]	IC50, cell viability 72 h (Gefitinib) [µM]	IC50, cell viability 72 h (Prexasertib) [nM]	IC50, cell viability 72 h (Doxorubicin) [nM]	IC50, cell viability 72 h (AZD5153) [nM]	IC50, cell viability 72 h (Lapatinib) [µM]	IC50, cell viability 72 h (AZD8186) [µM]	IC50, cell viability 72 h (Crizotinib) [µM]	IC50, cell viability 72 h (Savolitinib) [nM]	IC50, cell viability 72 h (AZD6738) [µM]	IC50, cell viability 72 h (AZD5991) [nM]	IC50, cell viability 72 h (AZD7648) [µM]	IC50, cell viability 72 h (Taselisib) [µM]	IC50, cell viability 72 h (Selumetinib) [µM]	IC50, cell viability 72 h (SRA737) [µM]	IC50, cell viability 72 h (MK-2206) [µM]	IC50, cell viability 72 h (Gemcitabine) [nM]	IC50, cell viability 72 h [1] [nM]	IC50, cell viability 72 h (Olaparib) [µM]	IC50, cell viability 72 h (5-Fluorouracil) [µM]	IC50, cell viability 72 h (AZD1775; max 1 µM) [nM]	IC50, cell viability 72 h (AZD0156; max 1 µM) [nM]
OVCAR-5 (Ovarian Carcinoma)	> 10	> 10	> 3000	89.6	120	> 10	> 300	> 1000	381	> 1	> 1000	> 300	> 3000	> 1000	> 10	> 10	> 10	40.5	> 1000	677	> 10	> 10	> 10	> 1000	5.14	> 1000	> 10	2.07	2.15	> 10	> 10	> 300	1660	> 10	> 20	–	–
SAS (Oral Cavity Carcinoma)	> 10	> 10	511	191	77.7	5.61	> 300	> 1000	> 2000	> 1	> 1000	2.92	> 3000	> 1000	> 10	1.13	9.89	59	226	115	> 10	> 10	> 10	> 1000	4.42	> 1000	> 10	5.19	6.14	> 10	> 10	13	479	> 10	> 20	–	–
SNU-16 (Gastric Carcinoma)	> 10	> 10	–	> 1000	< 3	6.23	> 300	> 1000	> 2000	> 1	479	22.9	–	> 1000	0.106	5.56	9.59	10.1	301	241	> 10	> 10	2.8	> 1000	0.754	170	> 10	> 10	> 10	1.2	> 10	6.96	> 5000	> 10	> 20	522	> 1000
SNU-449 (Hepatocellular Carcinoma)	> 10	> 10	> 3000	> 1000	> 3000	> 10	> 300	> 1000	1260	> 1	> 1000	> 300	> 3000	> 1000	> 10	> 10	> 10	> 1000	> 1000	> 1000	> 10	> 10	> 10	> 1000	> 10	> 1000	> 10	> 10	> 10	> 10	> 10	> 300	> 5000	> 10	> 20	–	–
